The structures appear in SMILES notation.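 Protocol summary: plate cells (96-well), add compound at 5 concentrations, incubate 48 h, interpolate endpoints linearly. At the GI50, growth is halved.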 Active and inactive are the calls of the source. No stated cut-off is given here; in the data, active = GI50 up to about 1.1 µM and inactive = higher. Bounds are passed on as bounds.

Some test systems named below: SF-268; MCF7; OVCAR-8; CCRF-CEM; HCT-15; OVCAR-5; TK-10; Malme-3M; SK-MEL-2; HCT-116; SW-620; MDA-N; OVCAR-3; UACC-257; SK-MEL-5; KM12; SF-295; SK-OV-3; SF-539; M14.
Assay in all cases: growth of human tumour cells (NCI), 48 h

Consider `C=CCCCN1C(=O)C2C3c4ccccc4C(C=O)(c4ccccc43)C2C1=O` (configuration not stated), for which the GI50 is 14.5 µM (inactive) with SF-268; 12.3 µM (inactive) in the experiment on MCF7; 13.4 µM (inactive) with OVCAR-8; 3.58 µM (inactive) in the experiment on CCRF-CEM; 8.41 µM with HCT-15; 18.9 µM (inactive) with OVCAR-5. The GI50 was 16.1 µM (inactive) in the experiment on TK-10; 13.6 µM (inactive) in the experiment on Malme-3M; 24 µM (inactive) with SK-MEL-2; 3.13 µM (inactive) in the experiment on HCT-116; 13 µM (inactive) with SW-620; 13.6 µM (inactive) with MDA-N. Also, the GI50 with OVCAR-3 was 9.02 µM (inactive); in the experiment on UACC-257, 13 µM (inactive); with SK-MEL-5, 11.3 µM (inactive); with KM12, 4.02 µM (inactive); with SF-295, 9.91 µM (inactive); with SK-OV-3 it was 18.2 µM (inactive).
On to `COc1cccc2c1C(=O)c1c(O)c3c(c(O)c1C2=O)C[C@@](O)(C(C)=O)C[C@@H]3OC1CC(O)C(O)C(C)O1` (some centres not stated), for which the GI50 with SF-268 is 1.08 µM (active); in the experiment on SF-539, 0.9 µM (active); with OVCAR-8, 1.3 µM (inactive); with CCRF-CEM, 0.0902 µM (active); with HCT-15, 1.43 µM; in the experiment on OVCAR-5, 1.04 µM (active). The GI50 in the experiment on TK-10 is 5.74 µM (inactive); with Malme-3M, 0.000916 µM (active); with SK-MEL-2, 4.81 µM (inactive); in the experiment with HCT-116 it was 0.288 µM (active); in the experiment on SW-620 it was 0.536 µM (active); with MDA-N, 8.71 µM (inactive). For the same compound, the GI50 is 3.69 µM (inactive) in the experiment with OVCAR-3; 3.79 µM (inactive) in the experiment with UACC-257; 0.875 µM (active) in the experiment with SK-MEL-5; 1.55 µM (inactive) in the experiment on KM12; 0.673 µM (active) in the experiment on SF-295; 4.51 µM (inactive) in the experiment on SK-OV-3. Also, the GI50 with M14 is 4.8 µM (inactive).
For `Cn1c2n/c(=N\c3ccc(Cl)cc3)[n+]3ccc4ccccc4c3c-2c([O-])n1-c1ccccc1`, the GI50 in the experiment with SF-268 was > 100 µM (inactive); with MCF7 it was > 100 µM (inactive); with OVCAR-8, > 100 µM (inactive); with HCT-15, above 100 µM; in the experiment on OVCAR-5, > 100 µM (inactive); in the experiment with TK-10, > 100 µM (inactive). Also, the GI50 with Malme-3M, in the experiment on SK-MEL-2, with HCT-116, in the experiment with SW-620, in the experiment on MDA-N and in the experiment with OVCAR-3 was > 100 µM (inactive) throughout. For the same compound, the GI50 in the experiment on UACC-257 is > 100 µM (inactive); in the experiment on SK-MEL-5, > 100 µM (inactive); with KM12, 42.9 µM (inactive); with SF-295 it was > 100 µM (inactive).
Consider `O=C1CC(c2ccc[nH]2)=NN1c1ccccc1`, for which the GI50 in the experiment with SF-268 was > 100 µM (inactive); with SF-539 it was > 100 µM (inactive); in the experiment on OVCAR-8, > 100 µM (inactive); in the experiment with CCRF-CEM, 88.5 µM (inactive); with HCT-15, above 100 µM; with OVCAR-5 it was > 100 µM (inactive). Besides, the GI50 with TK-10, in the experiment with Malme-3M, in the experiment with SK-MEL-2, in the experiment on HCT-116, in the experiment with SW-620 and in the experiment on MDA-N was > 100 µM (inactive) each time. Also, the GI50 in the experiment with OVCAR-3, in the experiment on UACC-257, in the experiment with SK-MEL-5, with KM12, with SF-295 and with SK-OV-3 was > 100 µM (inactive) throughout. Besides, in the experiment on M14, the GI50 is > 100 µM (inactive).
For the compound `Fc1cc(C2=Nn3c(CNc4ccc(Cl)cc4)nnc3S/C2=C\c2ccc(-c3ccc(Cl)cc3)o2)c(Cl)cc1Cl`, the GI50 in the experiment on SF-268 is 53.2 µM (inactive); in the experiment with MCF7, 38.8 µM (inactive); with OVCAR-8, 51.1 µM (inactive); in the experiment on CCRF-CEM, 67.1 µM (inactive); in the experiment with HCT-15, above 100 µM; with OVCAR-5, 18.7 µM (inactive). In addition, the GI50 was 17.5 µM (inactive) in the experiment on TK-10; 17.3 µM (inactive) with Malme-3M; 22.6 µM (inactive) with SK-MEL-2; 63.2 µM (inactive) with HCT-116; > 100 µM (inactive) in the experiment on SW-620; > 100 µM (inactive) with MDA-N. The GI50 in the experiment on OVCAR-3 was 29.6 µM (inactive); in the experiment on UACC-257 it was > 100 µM (inactive); with SK-MEL-5, 26.1 µM (inactive); in the experiment on KM12, > 100 µM (inactive); in the experiment on SF-295, 22.3 µM (inactive); with M14, 53.3 µM (inactive).
As to `Cn1c2ccccc2n2c(=O)c3cccnc3c(C#N)c12`, the GI50 with SF-268 is > 100 µM (inactive); with SF-539 it was 66.4 µM (inactive); in the experiment on OVCAR-8, 40.3 µM (inactive); in the experiment with HCT-15, 37.8 µM; in the experiment on OVCAR-5, > 100 µM (inactive); in the experiment on TK-10, > 100 µM (inactive). For the same compound, the GI50 with Malme-3M is > 100 µM (inactive); with HCT-116, 94.2 µM (inactive); in the experiment with SW-620 it was 19.6 µM (inactive); in the experiment on MDA-N, > 100 µM (inactive); in the experiment with OVCAR-3, > 100 µM (inactive); in the experiment with UACC-257, > 100 µM (inactive). In addition, the GI50 with SK-MEL-5 was 9.51 µM (inactive); with KM12, > 100 µM (inactive); in the experiment on SF-295, > 100 µM (inactive); with SK-OV-3, > 100 µM (inactive).
Consider `Cc1sc2nc3n(c(=O)c2c1C)N=CN(c1ccc(Cl)cc1)C3`, for which the GI50 with SF-268 was 39.4 µM (inactive); in the experiment with OVCAR-8, > 100 µM (inactive); in the experiment with CCRF-CEM, > 100 µM (inactive); in the experiment on HCT-15, above 100 µM; in the experiment with OVCAR-5 it was > 100 µM (inactive); in the experiment on TK-10 it was > 100 µM (inactive). Also, the GI50 in the experiment with Malme-3M is 33.3 µM (inactive); in the experiment on SK-MEL-2, > 100 µM (inactive); in the experiment with HCT-116 it was > 100 µM (inactive); in the experiment with SW-620 it was > 100 µM (inactive); in the experiment on MDA-N it was > 100 µM (inactive); in the experiment with OVCAR-3 it was > 100 µM (inactive). Moreover, the GI50 with UACC-257, in the experiment on SK-MEL-5, in the experiment on KM12, with SF-295, in the experiment on SK-OV-3 and with M14 was > 100 µM (inactive) throughout.
For `COc1ccc(C2=NN(c3ccccc3)C(c3cc4cc(Br)ccc4nc3Cl)C2)cc1` (configuration not stated), the GI50 is > 25 µM (inactive) in the experiment on SF-268; > 25 µM (inactive) in the experiment with SF-539; > 25 µM (inactive) in the experiment with OVCAR-8; 24.2 µM (inactive) in the experiment on CCRF-CEM; 11.6 µM in the experiment with HCT-15; > 25 µM (inactive) in the experiment on OVCAR-5. Further, the GI50 with Malme-3M was > 25 µM (inactive); in the experiment on SK-MEL-2, > 25 µM (inactive); in the experiment on HCT-116, 17.5 µM (inactive); with SW-620, 24.9 µM (inactive); in the experiment with MDA-N it was 20.8 µM (inactive); in the experiment with OVCAR-3, > 25 µM (inactive). In addition, the GI50 with SK-MEL-5 is > 25 µM (inactive); in the experiment with KM12 it was 11.4 µM (inactive); in the experiment on SF-295 it was 9.51 µM (inactive); in the experiment on SK-OV-3 it was > 25 µM (inactive); in the experiment on M14 it was > 25 µM (inactive).
In the case of `CCCCOC(=O)C1CC[C@H]2[C@@H]3CCc4cc(OC(=O)c5cccc6c(=O)c7ccccc7[nH]c56)ccc4[C@H]3CC[C@]12C` (some centres not stated), the GI50 with SF-268 was 9.44 µM (inactive); with MCF7, 13.3 µM (inactive); with OVCAR-8, 10.7 µM (inactive); in the experiment with HCT-15 it was 6.98 µM; with OVCAR-5, 11.3 µM (inactive); in the experiment with TK-10, 7.96 µM (inactive). Further, the GI50 is 10.9 µM (inactive) in the experiment on Malme-3M; 9.91 µM (inactive) with SK-MEL-2; 9.31 µM (inactive) in the experiment with HCT-116; 12.4 µM (inactive) in the experiment on SW-620; 7.83 µM (inactive) with MDA-N; 8.47 µM (inactive) with OVCAR-3. The GI50 with UACC-257 is 8.47 µM (inactive); in the experiment with SK-MEL-5, 6.46 µM (inactive); with KM12, 9.71 µM (inactive); in the experiment on SF-295 it was 8.53 µM (inactive); in the experiment on SK-OV-3 it was 9.86 µM (inactive); in the experiment on M14, 11.3 µM (inactive).
For `COP(=O)(O)/C=C/C(NC(=O)C(Cl)(Cl)Cl)c1ccccc1` (configuration not stated), the GI50 is > 100 µM (inactive) in the experiment on SF-268; > 100 µM (inactive) in the experiment on MCF7; > 100 µM (inactive) in the experiment with OVCAR-8; above 100 µM in the experiment on HCT-15; > 100 µM (inactive) with OVCAR-5; > 100 µM (inactive) in the experiment on TK-10. Further, the GI50 in the experiment on Malme-3M, in the experiment on SK-MEL-2, with HCT-116, in the experiment on SW-620, with MDA-N and in the experiment on OVCAR-3 was > 100 µM (inactive) each time. Besides, the GI50 in the experiment with UACC-257, in the experiment with SK-MEL-5, in the experiment with KM12, in the experiment with SF-295, in the experiment with SK-OV-3 and in the experiment on M14 was > 100 µM (inactive) throughout.
Regarding `COC1(c2ccc(Cl)cc2)SC=C(C)n2c1noc2=O` (configuration not stated), the GI50 in the experiment on SF-268 was > 100 µM (inactive); with MCF7 it was > 100 µM (inactive); in the experiment with CCRF-CEM it was > 100 µM (inactive); with HCT-15, above 100 µM; with OVCAR-5, > 100 µM (inactive); with Malme-3M, > 100 µM (inactive). Further, the GI50 in the experiment with HCT-116 is 78.7 µM (inactive); in the experiment with SW-620 it was > 100 µM (inactive); in the experiment with MDA-N, > 100 µM (inactive); in the experiment with OVCAR-3, 29.7 µM (inactive); in the experiment on UACC-257, > 100 µM (inactive); in the experiment on SK-MEL-5, > 100 µM (inactive). Besides, the GI50 with KM12 was 86.9 µM (inactive); with SF-295, > 100 µM (inactive); in the experiment on M14, > 100 µM (inactive).

The values are drawn from ChEMBL document CHEMBL1201862, “PubChem BioAssay data set” (2004).
